According to PubChem BioAssay (NCI):
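Growth conditions: 96-well plates. Treatment: test compound, 48 hours, 5 concentrations. Analysis: linear interpolation between bracketing concentrations; unreached endpoints set to highest concentration. GI50 = concentration required for 50% inhibition of growth. TGI is the concentration that stops growth completely.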

What was measured:
Assay in all cases: inhibition of tumour cell growth, NCI panel, 48 h
786-0 renal = tested on: 786-0 renal
A498 renal = tested on: A498 renal
A549 NSCLC = tested on: A549 NSCLC
BT-549 breast = tested on: BT-549 breast
CAKI-1 renal = tested on: CAKI-1 renal
CCRF-CEM leukemia = tested on: CCRF-CEM leukemia
COLO 205 colon = tested on: COLO 205 colon
DU-145 prostate = tested on: DU-145 prostate
EKVX NSCLC = tested on: EKVX NSCLC
HCC-2998 colon = tested on: HCC-2998 colon
HCT-116 colon = tested on: HCT-116 colon
HCT-15 colon = tested on: HCT-15 colon
HOP-62 NSCLC = tested on: HOP-62 NSCLC
HOP-92 NSCLC = tested on: HOP-92 NSCLC
HS 578T breast = tested on: HS 578T breast
HT29 colon = tested on: HT29 colon
IGROV1 ovarian = tested on: IGROV1 ovarian
K-562 leukemia = tested on: K-562 leukemia
KM12 colon = tested on: KM12 colon
LOX IMVI melanoma = tested on: LOX IMVI melanoma
M14 melanoma = tested on: M14 melanoma
MALME-3M melanoma = tested on: MALME-3M melanoma
MCF7 breast = tested on: MCF7 breast
MDA-MB-231 breast = tested on: MDA-MB-231 breast
MDA-MB-435 = tested on: MDA-MB-435
MOLT-4 leukemia = tested on: MOLT-4 leukemia
NCI-H226 lung = tested on: NCI-H226 lung
NCI-H23 lung = tested on: NCI-H23 lung
NCI-H460 lung = tested on: NCI-H460 lung
NCI-H522 lung = tested on: NCI-H522 lung
NCI/ADR-RES ovarian = tested on: NCI/ADR-RES ovarian
OVCAR-4 ovarian = tested on: OVCAR-4 ovarian
OVCAR-5 ovarian = tested on: OVCAR-5 ovarian
OVCAR-8 ovarian = tested on: OVCAR-8 ovarian
PC-3 prostate = tested on: PC-3 prostate
RPMI-8226 leukemia = tested on: RPMI-8226 leukemia
RXF 393 renal = tested on: RXF 393 renal
SF-268 CNS = tested on: SF-268 CNS
SF-295 CNS = tested on: SF-295 CNS
SF-539 CNS = tested on: SF-539 CNS
SK-MEL-2 melanoma = tested on: SK-MEL-2 melanoma
SK-MEL-28 melanoma = tested on: SK-MEL-28 melanoma
SK-MEL-5 melanoma = tested on: SK-MEL-5 melanoma
SK-OV-3 ovarian = tested on: SK-OV-3 ovarian
SN12C renal = tested on: SN12C renal
SNB-19 CNS = tested on: SNB-19 CNS
SNB-75 CNS = tested on: SNB-75 CNS
SR leukemia = tested on: SR leukemia
SW-620 colon = tested on: SW-620 colon
T-47D breast = tested on: T-47D breast
TK-10 renal = tested on: TK-10 renal
U251 CNS = tested on: U251 CNS
UACC-257 melanoma = tested on: UACC-257 melanoma
UACC-62 melanoma = tested on: UACC-62 melanoma
UO-31 renal = tested on: UO-31 renal
ACHN renal = tested on: ACHN renal
HL-60(TB) leukemia = tested on: HL-60(TB) leukemia
OVCAR-3 ovarian = tested on: OVCAR-3 ovarian

Cn1c2ccccc2c2c3c(c4c5ccccc5n(C)c4c21)C(=O)NC3=O
TGI (786-0 renal): 27.5 µM
TGI (A498 renal): > 44.2 µM
TGI (A549 NSCLC): > 85.3 µM
TGI (BT-549 breast): > 100 µM
TGI (CAKI-1 renal): > 100 µM
TGI (CCRF-CEM leukemia): > 100 µM
TGI (COLO 205 colon): > 100 µM
TGI (DU-145 prostate): > 100 µM
TGI (EKVX NSCLC): > 100 µM
TGI (HCC-2998 colon): > 100 µM
TGI (HCT-116 colon): > 100 µM
TGI (HCT-15 colon): > 100 µM
TGI (HOP-62 NSCLC): > 55.8 µM
TGI (HOP-92 NSCLC): > 100 µM
TGI (HS 578T breast): > 72.6 µM
TGI (HT29 colon): > 100 µM
TGI (IGROV1 ovarian): > 71.8 µM
TGI (K-562 leukemia): > 100 µM
TGI (KM12 colon): > 100 µM
TGI (LOX IMVI melanoma): > 100 µM
TGI (M14 melanoma): > 100 µM
TGI (MALME-3M melanoma): > 100 µM
TGI (MCF7 breast): > 100 µM
TGI (MDA-MB-231 breast): > 52.7 µM
TGI (MDA-MB-435): > 100 µM
TGI (MOLT-4 leukemia): > 100 µM
TGI (NCI-H226 lung): > 100 µM
TGI (NCI-H23 lung): > 100 µM
TGI (NCI-H460 lung): 70.1 µM
TGI (NCI-H522 lung): > 86.7 µM
TGI (NCI/ADR-RES ovarian): > 100 µM
TGI (OVCAR-4 ovarian): 28.6 µM
TGI (OVCAR-5 ovarian): > 100 µM
TGI (OVCAR-8 ovarian): > 100 µM
TGI (PC-3 prostate): > 77.5 µM
TGI (RPMI-8226 leukemia): > 100 µM
TGI (RXF 393 renal): > 22.1 µM
TGI (SF-268 CNS): > 100 µM
TGI (SF-295 CNS): > 76.5 µM
TGI (SF-539 CNS): 35.4 µM
TGI (SK-MEL-2 melanoma): > 58.3 µM
TGI (SK-MEL-28 melanoma): > 100 µM
TGI (SK-MEL-5 melanoma): > 100 µM
TGI (SK-OV-3 ovarian): > 100 µM
TGI (SN12C renal): > 100 µM
TGI (SNB-19 CNS): 49.6 µM
TGI (SNB-75 CNS): > 95.7 µM
TGI (SR leukemia): > 100 µM
TGI (SW-620 colon): > 100 µM
TGI (T-47D breast): > 100 µM
TGI (TK-10 renal): > 100 µM
TGI (U251 CNS): > 51.5 µM
TGI (UACC-257 melanoma): > 100 µM
TGI (UACC-62 melanoma): > 89.6 µM
TGI (UO-31 renal): > 100 µM

COc1ccccc1C#Cc1ccccc1C#CCCCCO
GI50 (786-0 renal): 13.6 µM
TGI (786-0 renal): 29.7 µM
GI50 (A498 renal): 13.3 µM
TGI (A498 renal): 27.9 µM
GI50 (A549 NSCLC): 16.3 µM
TGI (A549 NSCLC): 36.5 µM
GI50 (ACHN renal): 19.4 µM
TGI (ACHN renal): 38.6 µM
GI50 (BT-549 breast): 15.5 µM
TGI (BT-549 breast): 33.4 µM
GI50 (CAKI-1 renal): 19.7 µM
TGI (CAKI-1 renal): 42.7 µM
GI50 (CCRF-CEM leukemia): 16.3 µM
TGI (CCRF-CEM leukemia): 85.6 µM
GI50 (COLO 205 colon): 18.3 µM
TGI (COLO 205 colon): 37.7 µM
GI50 (DU-145 prostate): 14.3 µM
TGI (DU-145 prostate): 29.5 µM
GI50 (EKVX NSCLC): 15.9 µM
TGI (EKVX NSCLC): 34.4 µM
GI50 (HCC-2998 colon): 17.9 µM
TGI (HCC-2998 colon): 35.4 µM
GI50 (HCT-116 colon): 16 µM
TGI (HCT-116 colon): 36.3 µM
GI50 (HCT-15 colon): 19.9 µM
TGI (HCT-15 colon): 48.9 µM
GI50 (HL-60(TB) leukemia): 50.8 µM
TGI (HL-60(TB) leukemia): > 100 µM
GI50 (HOP-62 NSCLC): 14.6 µM
TGI (HOP-62 NSCLC): > 100 µM
GI50 (HOP-92 NSCLC): 13.7 µM
TGI (HOP-92 NSCLC): 31.1 µM
GI50 (HS 578T breast): 17 µM
TGI (HS 578T breast): 55.4 µM
GI50 (HT29 colon): 8.58 µM
TGI (HT29 colon): 29 µM
GI50 (IGROV1 ovarian): 15.3 µM
TGI (IGROV1 ovarian): 32.2 µM
GI50 (K-562 leukemia): 15.5 µM
TGI (K-562 leukemia): > 100 µM
GI50 (KM12 colon): 23.1 µM
TGI (KM12 colon): 57.8 µM
GI50 (LOX IMVI melanoma): 17.9 µM
TGI (LOX IMVI melanoma): 36 µM
GI50 (MALME-3M melanoma): 22.4 µM
TGI (MALME-3M melanoma): 65.6 µM
GI50 (MCF7 breast): 31.7 µM
TGI (MCF7 breast): > 100 µM
GI50 (MDA-MB-231 breast): 12.4 µM
TGI (MDA-MB-231 breast): 27.1 µM
GI50 (MDA-MB-435): 20.2 µM
TGI (MDA-MB-435): 41.8 µM
GI50 (MOLT-4 leukemia): 19.6 µM
TGI (MOLT-4 leukemia): 96 µM
GI50 (NCI-H226 lung): 21.4 µM
TGI (NCI-H226 lung): 49.2 µM
GI50 (NCI-H23 lung): 19.1 µM
TGI (NCI-H23 lung): 37.7 µM
GI50 (NCI-H460 lung): 15.5 µM
TGI (NCI-H460 lung): 34.2 µM
GI50 (NCI-H522 lung): 16.3 µM
TGI (NCI-H522 lung): 33.8 µM
GI50 (NCI/ADR-RES ovarian): 21.9 µM
TGI (NCI/ADR-RES ovarian): 47.4 µM
GI50 (OVCAR-3 ovarian): 19.8 µM
TGI (OVCAR-3 ovarian): 47.2 µM
GI50 (OVCAR-4 ovarian): 23.2 µM
TGI (OVCAR-4 ovarian): 63.1 µM
GI50 (OVCAR-5 ovarian): 16.8 µM
TGI (OVCAR-5 ovarian): 34.1 µM
GI50 (OVCAR-8 ovarian): 22.6 µM
TGI (OVCAR-8 ovarian): 74.9 µM
GI50 (PC-3 prostate): 15.4 µM
TGI (PC-3 prostate): 42.2 µM
GI50 (RPMI-8226 leukemia): 20 µM
TGI (RPMI-8226 leukemia): > 100 µM
GI50 (RXF 393 renal): 13.8 µM
TGI (RXF 393 renal): 29.8 µM
GI50 (SF-268 CNS): 18 µM
TGI (SF-268 CNS): 45.2 µM
GI50 (SF-295 CNS): 22.1 µM
TGI (SF-295 CNS): 45.1 µM
GI50 (SF-539 CNS): 14.4 µM
TGI (SF-539 CNS): 29.1 µM
GI50 (SK-MEL-2 melanoma): 20.1 µM
TGI (SK-MEL-2 melanoma): 41.6 µM
GI50 (SK-MEL-28 melanoma): 16.8 µM
TGI (SK-MEL-28 melanoma): 33.4 µM
GI50 (SK-MEL-5 melanoma): 14.1 µM
TGI (SK-MEL-5 melanoma): 29.5 µM
GI50 (SK-OV-3 ovarian): 17.9 µM
TGI (SK-OV-3 ovarian): 40.7 µM
GI50 (SN12C renal): 17.5 µM
TGI (SN12C renal): 34.5 µM
GI50 (SNB-19 CNS): 16.7 µM
TGI (SNB-19 CNS): 32.8 µM
GI50 (SNB-75 CNS): 12 µM
TGI (SNB-75 CNS): 26.2 µM
GI50 (SR leukemia): 1.01 µM
TGI (SR leukemia): 64.4 µM
GI50 (SW-620 colon): 19.2 µM
TGI (SW-620 colon): 46.4 µM
GI50 (T-47D breast): 18.5 µM
TGI (T-47D breast): 65.8 µM
GI50 (TK-10 renal): 34.5 µM
TGI (TK-10 renal): > 100 µM
GI50 (U251 CNS): 18.7 µM
TGI (U251 CNS): 37.3 µM
GI50 (UACC-257 melanoma): 20.6 µM
TGI (UACC-257 melanoma): 38.8 µM
GI50 (UACC-62 melanoma): 16 µM
TGI (UACC-62 melanoma): 30.7 µM
GI50 (UO-31 renal): 16.8 µM
TGI (UO-31 renal): 32.8 µM
